Data from patent publication US10696651B2, “Heterocyclic compound” (Takeda Pharmaceutical Company Limited, priority 2016, dated 2020).
Where a name gives a salt, the structure may show the parent alone.

The compounds below were run against T1, human GCN2 full-length protein (Homo sapiens, UniProt Q9P2K8) (assay: GCN2 enzyme inhibition assay (LanthaScreen TR-FRET)). Details: GCN2 enzyme inhibitory activity at compound concentration of 3 μM; Table 3-1; read-out: inhibitory rate.
T1 construct: purchased Carna Biosciences, Inc
Type: biochemical
Description: GCN2 enzyme was preserved at -70° C. and used. The GCN2 enzyme inhibitory activity of the test compound was measured by the LanthaScreenTR-FRET (Time Resolved Fluorescence Resonance Energy Transfer) method (manufactured by ThermoFisher). […] Then, GCN2 enzyme solution diluted with the assay buffer was added by 2 μL to each well. The enzyme solution was not added to a part of the wells to give a control group. After incubation at room temperature for 1 hr, 570 μM ATP solution containing 390 nM […] physiological protein substrate (ThermoFisher) was added by 2 μL. After reaction at room temperature for 1 hr, TR-FRET Dilution Buffer (ThermoFisher) containing 4 nM Terbium-labeled anti-elF2alpha [[…]] antibody (ThermoFisher) dissolved therein was added by 2 μL to each well. After standing at room temperature for 1 hr, time decomposition fluorescence measurement was performed on platereader Envision (manufactured by PerkinElmer).

T1 sequence (Q9P2K8 whole entry): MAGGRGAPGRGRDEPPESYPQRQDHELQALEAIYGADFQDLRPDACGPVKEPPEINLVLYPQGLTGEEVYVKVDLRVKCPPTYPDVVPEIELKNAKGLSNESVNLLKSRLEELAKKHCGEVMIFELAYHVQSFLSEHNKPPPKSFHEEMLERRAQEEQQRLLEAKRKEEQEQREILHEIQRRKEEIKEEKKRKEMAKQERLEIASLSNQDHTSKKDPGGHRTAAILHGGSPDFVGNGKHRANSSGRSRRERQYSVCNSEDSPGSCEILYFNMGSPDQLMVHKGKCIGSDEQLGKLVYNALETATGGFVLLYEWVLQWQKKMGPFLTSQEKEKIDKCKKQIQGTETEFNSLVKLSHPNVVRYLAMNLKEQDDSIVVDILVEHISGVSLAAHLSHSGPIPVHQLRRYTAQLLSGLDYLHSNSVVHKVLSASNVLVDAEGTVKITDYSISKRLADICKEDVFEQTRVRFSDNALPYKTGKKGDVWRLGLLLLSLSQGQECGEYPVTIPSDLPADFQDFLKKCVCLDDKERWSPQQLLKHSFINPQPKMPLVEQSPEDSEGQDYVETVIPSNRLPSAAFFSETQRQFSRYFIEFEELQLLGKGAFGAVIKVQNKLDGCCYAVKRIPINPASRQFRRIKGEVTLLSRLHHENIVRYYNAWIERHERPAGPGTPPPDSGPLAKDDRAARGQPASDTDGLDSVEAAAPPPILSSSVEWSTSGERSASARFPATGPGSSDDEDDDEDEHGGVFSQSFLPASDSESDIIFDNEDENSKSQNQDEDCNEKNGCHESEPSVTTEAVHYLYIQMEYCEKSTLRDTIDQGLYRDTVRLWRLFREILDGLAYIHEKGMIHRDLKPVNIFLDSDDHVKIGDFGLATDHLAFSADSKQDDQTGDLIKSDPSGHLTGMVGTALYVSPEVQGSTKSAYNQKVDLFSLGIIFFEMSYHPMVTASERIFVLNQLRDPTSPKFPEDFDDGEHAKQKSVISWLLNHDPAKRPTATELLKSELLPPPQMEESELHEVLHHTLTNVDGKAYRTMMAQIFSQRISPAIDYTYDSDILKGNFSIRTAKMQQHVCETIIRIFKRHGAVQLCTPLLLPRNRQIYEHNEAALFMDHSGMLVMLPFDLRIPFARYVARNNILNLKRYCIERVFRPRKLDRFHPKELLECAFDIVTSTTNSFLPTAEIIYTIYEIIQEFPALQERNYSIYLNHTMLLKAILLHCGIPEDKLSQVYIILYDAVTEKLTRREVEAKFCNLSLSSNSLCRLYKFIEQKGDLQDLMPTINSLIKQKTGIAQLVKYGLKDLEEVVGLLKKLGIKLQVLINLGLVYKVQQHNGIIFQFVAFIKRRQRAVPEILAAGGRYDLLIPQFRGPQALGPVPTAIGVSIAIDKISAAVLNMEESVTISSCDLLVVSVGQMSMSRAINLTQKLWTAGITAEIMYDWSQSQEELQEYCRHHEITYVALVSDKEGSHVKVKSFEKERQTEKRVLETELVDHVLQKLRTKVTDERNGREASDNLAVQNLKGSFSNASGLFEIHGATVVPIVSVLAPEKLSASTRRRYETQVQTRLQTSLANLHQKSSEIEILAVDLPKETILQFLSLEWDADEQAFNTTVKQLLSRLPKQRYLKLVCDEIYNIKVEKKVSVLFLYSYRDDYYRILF

In order of falling inhibition at 3 µM:
1. COc1ncc(Cl)cc1S(=O)(=O)Nc1ccc(F)c(C#Cc2cnc(N)nc2)c1Cl [Example 125, N-(3-((2-aminopyrimidin-5-yl)ethynyl)-2-chloro-4-fluorophenyl)-5-chloro-2-methoxypyridine-3-sulfonamide]  100%
2. COc1ncc(Cl)cc1S(=O)(=O)Nc1ccc(F)c(C#Cc2cnc(N)c(C)n2)c1F [Example 110, N-(3-((5-amino-6-methylpyrazin-2-yl)ethynyl)-2,4-difluorophenyl)-5-chloro-2-methoxypyridine-3-sulfonamide]  100%
3. COc1ncc(Cl)cc1S(=O)(=O)Nc1cccc(C#Cc2cnc(N)nc2)c1F [Example 123, N-(3-((2-aminopyrimidin-5-yl)ethynyl)-2-fluorophenyl)-5-chloro-2-methoxypyridine-3-sulfonamide]  100%
4. Cc1ncc(Cl)cc1S(=O)(=O)Nc1ccc(F)c(C#Cc2cnc(NC(C)C)nc2)c1F [Example 105, 5-chloro-N-(2,4-difluoro-3-((2-(isopropylamino)pyrimidin-5-yl)ethynyl)phenyl)-2-methylpyridine-3-sulfonamide]  100%
5. COc1ncc(Cl)cc1S(=O)(=O)Nc1cccc(C#Cc2cnc(N)nc2)c1Cl [Example 126, N-(3-((2-aminopyrimidin-5-yl)ethynyl)-2-chlorophenyl)-5-chloro-2-methoxypyridine-3-sulfonamide]  100%
6. O=S(=O)(Nc1ccc(F)c(C#Cc2cnc(NC3CCOC3)nc2)c1F)c1cc(Cl)ccc1Cl (stereo not drawn) [Example 16, 2,5-dichloro-N-(2,4-difluoro-3-((2-(tetrahydrofuran-3-ylamino)pyrimidin-5-yl)ethynyl)phenyl)benzenesulfonamide TFA Salt]  100%
7. COc1ncc(Cl)cc1S(=O)(=O)Nc1ccc(Cl)c(C#Cc2cnc(N)nc2)c1F [Example 124, N-(3-((2-aminopyrimidin-5-yl)ethynyl)-4-chloro-2-fluorophenyl)-5-chloro-2-methoxypyridine-3-sulfonamide]  100%
8. COc1ncc(Cl)cc1S(=O)(=O)Nc1ccc(F)c(C#Cc2cnc(N)nn2)c1F [Example 109, N-(3-((3-amino-1,2,4-triazin-6-yl)ethynyl)-2,4-difluorophenyl)-5-chloro-2-methoxypyridine-3-sulfonamide]  99%
9. COc1ncc(Cl)cc1S(=O)(=O)Nc1ccc(F)c(C#Cc2cnc(NCC(C)(C)O)nc2)c1F [Example 107, 5-chloro-N-(2,4-difluoro-3-((2-((2-hydroxy-2-methylpropyl)amino)pyrimidin-5-yl)ethynyl)phenyl)-2-methoxypyridine-3-sulfonamide]  99%
10. Cc1ccc(C)c(S(=O)(=O)Nc2ccc(F)c(C#Cc3cnc4[nH]ncc4c3)c2F)c1 [Example 112, N-(2,4-difluoro-3-(1H-pyrazolo[3,4-b]pyridin-5-ylethynyl)phenyl)-2,5-dimethylbenzenesulfonamide TFA Salt]  99%
11. Nc1ncc(C#Cc2c(F)ccc(NS(=O)(=O)c3cc(Cl)ccc3OC(F)F)c2F)cn1 [Example 21, N-(3-((2-aminopyrimidin-5-yl)ethynyl)-2,4-difluorophenyl)-5-chloro-2-(difluoromethoxy)benzenesulfonamide]  99%
12. O=S(=O)(Nc1ccc(F)c(C#Cc2cnc(NCCO)nc2)c1F)c1cc(Cl)ccc1Cl [Example 36, 2,5-dichloro-N-(2,4-difluoro-3-((2-((2-hydroxyethyl)amino)pyrimidin-5-yl)ethynyl)phenyl)benzenesulfonamide TFA Salt]  99%
13. COc1ncc(Cl)cc1S(=O)(=O)Nc1ccc(F)c(C#Cc2cnc(NC(C)(C)CO)nc2)c1F [Example 108, 5-chloro-N-(2,4-difluoro-3-((2-((1-hydroxy-2-methylpropan-2-yl)amino)pyrimidin-5-yl)ethynyl)phenyl)-2-methoxypyridine-3-sulfonamide]  99%
14. Nc1ncc(C#Cc2c(F)ccc(NS(=O)(=O)c3cc(Cl)cc4c3OCC4)c2F)cn1 [Example 9, N-(3-((2-aminopyrimidin-5-yl)ethynyl)-2,4-difluorophenyl)-5-chloro-2,3-dihydro-1-benzofuran-7-sulfonamide]  99%
15. COc1ncc(Cl)cc1S(=O)(=O)Nc1ccc(F)c(C#Cc2cnc(NC(C)C)nc2)c1F [Example 106, 5-chloro-N-(2,4-difluoro-3-((2-(isopropylamino)pyrimidin-5-yl)ethynyl)phenyl)-2-methoxypyridine-3-sulfonamide]  99%
16. Cc1ncc(Cl)cc1S(=O)(=O)Nc1ccc(F)c(C#Cc2cnc(N)nc2)c1F [Example 3, N-(3-((2-aminopyrimidin-5-yl)ethynyl)-2,4-difluorophenyl)-5-chloro-2-methylpyridine-3-sulfonamide]  99%
17. N#Cc1ccc(Cl)cc1S(=O)(=O)Nc1ccc(F)c(C#Cc2cnc(N)nc2)c1F [Example 29, N-(3-((2-aminopyrimidin-5-yl)ethynyl)-2,4-difluorophenyl)-5-chloro-2-cyanobenzenesulfonamide]  99%
18. O=S(=O)(Nc1ccc(F)c(C#Cc2cnc(NC3CC3)nc2)c1F)c1cc(Cl)ccc1Cl [Example 11, 2,5-dichloro-N-(3-((2-(cyclopropylamino)pyrimidin-5-yl)ethynyl)-2,4-difluorophenyl)benzenesulfonamide TFA Salt]  99%
19. CCNc1ncc(C#Cc2c(F)ccc(NS(=O)(=O)c3cc(Cl)ccc3Cl)c2F)cn1 [Example 30, 2,5-dichloro-N-(3-((2-(ethylamino)pyrimidin-5-yl)ethynyl)-2,4-difluorophenyl)benzenesulfonamide TFA Salt]  98%
20. Nc1ncc(C#Cc2c(F)ccc(NS(=O)(=O)c3cc(Cl)ccc3Cl)c2F)c(N)n1 [Example 34, 2,5-dichloro-N-(3-((2,4-diaminopyrimidin-5-yl)ethynyl)-2,4-difluorophenyl)benzenesulfonamide]  98%
21. Cc1cc(C)cc(S(=O)(=O)Nc2ccc(F)c(C#Cc3cnc4[nH]ncc4c3)c2F)c1 [Example 111, N-(2,4-difluoro-3-(1H-pyrazolo[3,4-b]pyridin-5-ylethynyl)phenyl)-3,5-dimethylbenzenesulfonamide TFA Salt]  97%
22. Nc1ncc(C#Cc2c(F)ccc(NS(=O)(=O)c3cc(C(F)(F)F)ccc3Cl)c2F)cn1 [Example 35, N-(3-((2-aminopyrimidin-5-yl)ethynyl)-2,4-difluorophenyl)-2-chloro-5-(trifluoromethyl)benzenesulfonamide]  95%

Same assay, conditions: GCN2 enzyme inhibitory activity at compound concentration of 3 μM; Table 3-2; read-out: inhibitory rate

In order of rising inhibition at 3 µM:
1. Nc1ncc(C#Cc2c(F)ccc(NS(=O)(=O)c3cc(Cl)cnc3C(F)(F)F)c2F)cn1 [Example 136, N-(3-((2-aminopyrimidin-5-yl)ethynyl)-2,4-difluorophenyl)-5-chloro-2-(trifluoromethyl)pyridine-3-sulfonamide]  99%
2. COc1c(CO)cc(Cl)cc1S(=O)(=O)Nc1ccc(F)c(C#Cc2cnc(N)c(C)n2)c1F [Example 131, N-(3-((5-amino-6-methylpyrazin-2-yl)ethynyl)-2,4-difluorophenyl)-5-chloro-3-(hydroxymethyl)-2-methoxybenzenesulfonamide]  99%
